Data: article doi:10.1101/2024.08.25.609621 (bioRxiv, 2024)
Like-named read-outs stand apart in the source and are kept apart here.

How the values were obtained:
[1] = biological target: SARS-CoV-2 NSP3 macrodomain (Mac1) (Severe acute respiratory syndrome coronavirus 2, UniProt P0DTD1); experiment: biochemical; type: binding
[2] = biological target: SARS-CoV-2 NSP3 macrodomain (Mac1), P43 crystal form (Severe acute respiratory syndrome coronavirus 2, UniProt P0DTD1); type: binding; conditions: for PanDDA run, TFA/DMSO background map: 1-BDC / PanDDA run, TFA/DMSO background map: Hit: crystal soak 10 mM; for Isomers modeled: stereoisomer(s) of ligand modeled in Mac1 crystal structure
[3] = Single dose, concentration 200 μM, read-out: Average % competition
[4] = preliminary screen, compound at 200 μM, mean of 3-4 technical replicates, read-out: % competition in HTRF assay
[5] = ligand modeling in Mac1 crystal soak
[6] = Single dose, concentration 200 μM, read-out: SARS CoV-2 macrodomain HTRF assay: Average % competition
[7] = from SARS CoV-2 macrodomain HTRF assay
[8] = SARS CoV-2 macrodomain HTRF assay
[9] = SARS CoV-2 macrodomain HTRF assay, dose-response, read-out: Ki

| Compound | inhibition at 200 µM [1, 3] [%] | inhibition at 200 µM [1, 4] [%] | PanDDA run, TFA/DMSO background map: 1-BDC [2] | PanDDA run, TFA/DMSO background map: Hit [2] | Number of isomers bound [2, 5] | Isomers modeled [2] | also measured |
| --- | --- | --- | --- | --- | --- | --- | --- |
| OCC(CC1CCCO1)Nc1ncnc2[nH]ccc12 (centres unmarked) [AVI-3660] | 18 | 18 | 0.17 | TRUE | 1 |  |  |
| OC1CCN(c2ncnc3[nH]ccc23)C1 (centres unmarked) [AVI-3661] |  | 11 | 0.12 | TRUE |  |  | inhibition at 200 µM [1, 6]: 11%; Number of isomers bound ([2]; ligand modeling in Mac1 crystal structure): 1 |
| OCC(CC1CC1)Nc1ncnc2[nH]ccc12 (centres unmarked) [AVI-3662] | 44 | 44 | 0.09 | TRUE | 1 |  |  |
| O[C@H]1CC[C@@H]2CCN(c3ncnc4[nH]ccc34)[C@@H]21 [AVI-3664] |  |  | 0.15 | TRUE | 1 | SRS | IC50 ([1]; dose-response, read-out: SARS CoV-2 macrodomain HTRF assay: IC50): 28 µM; Ki ([1]; dose-response, read-out: SARS CoV-2 macrodomain HTRF assay: Ki): 26 µM; Ligand efficiency (binding enery per heavy atom) [1, 7]: 0.35 |
| OCC(CC1CCOC1)Nc1ncnc2[nH]ccc12 (centres unmarked) [AVI-3665] | 11 | 11 | 0.15 | TRUE | 1 |  |  |
| CCC(O)[C@H]1CCCN1c1ncnc2[nH]ccc12 (some centres unmarked) [AVI-3666] |  |  |  |  | 1 |  | fold decrease in binding affinity compared to AVI-4062 [1]: ~ 4 fold; Ligand efficiency (binding enery per heavy atom) [1, 7]: 0.34 |
| CCC(Nc1ncnc2[nH]ccc12)C(C)(C)O (centres unmarked) [AVI-3667] | 51 | 51 | 0.07 | TRUE | 1 |  |  |
| CC(c1ccccc1)C(CO)Nc1ncnc2[nH]ccc12 (centres unmarked) [AVI-3669] |  |  | 0.09 | TRUE | 1 |  | fold more potent / increased binding affinity than AVI-313 parent ([1]; HTRF IC50 compared with AVI-313): > 10 fold; Ligand efficiency (binding enery per heavy atom) [1, 8]: 0.33; Ki [1, 9]: 8.1 µM; Ligand efficiency ([1]; binding energy per heavy atom): 0.33; IC50 ([1]; read-out: HTRF IC50): 8.7 µM |
| O=C(O)C(F)(F)F.OCC1(Nc2ncnc3[nH]ccc23)CCC1 [AVI-3670] |  |  | 0.12 | TRUE | 1 | achiral,achiral | Ligand efficiency (binding enery per heavy atom) [1, 8]: 0.38; IC50 ([1]; SARS CoV-2 macrodomain HTRF assay, dose-response, read-out: IC50): 39 µM; Ki [1, 9]: 36 µM |
| CN(C)CC(CO)Nc1ncnc2[nH]ccc12 (centres unmarked) [AVI-3671] | < 10 | < 10 | 0.13 | TRUE | 1 |  |  |
| OCC(Cc1nccs1)Nc1ncnc2[nH]ccc12 (centres unmarked) [AVI-3673] | 38 | 38 | 0.15 | TRUE | 1 |  |  |
| Cc1ccccc1CC(CO)Nc1ncnc2[nH]ccc12 (centres unmarked) [AVI-3674] | 32 |  | 0.15 | TRUE | 1 |  |  |
| OCC(CN1CCCCC1)Nc1ncnc2[nH]ccc12 (centres unmarked) [AVI-3677] | < 10 | < 10 | 0.18 | TRUE | 1 |  |  |
| OCC(Nc1ncnc2[nH]ccc12)C1CCOC1 (centres unmarked) [AVI-3679] | 35 | 35 | 0.11 | TRUE | 1 |  |  |
| O=C(O)C(F)(F)F.OCC12CC(CN1c1ncnc3[nH]ccc13)C2 [AVI-3681] |  | 54 | 0.12 | TRUE | 1 | achiral | inhibition at 200 µM [1, 6]: 54% |
| Cc1ccc(CC(CO)Nc2ncnc3[nH]ccc23)cc1 (centres unmarked) [AVI-3683] | 14 | 14 |  |  | 2 | S,R |  |
| Cc1ccc(CC(CO)Nc2ncnc3[nH]ccc23)cc1C (centres unmarked) [AVI-3684] | < 10 | < 10 |  |  | 2 | R,S |  |
| OCC1CCCN1c1ncnc2[nH]ccc12 (centres unmarked) [AVI-3685] |  | 48 |  |  | 1 |  | fold decrease in affinity compared to AVI-607 ([1]; HTRF): > 20 fold; inhibition at 200 µM [1, 6]: 47% |
| OCC(Cc1ccc(I)cc1)Nc1ncnc2[nH]ccc12 (centres unmarked) [AVI-3686] | < 10 | < 10 | 0.19 | TRUE | 2 | S,R |  |
